Laboratory results reported in the supplement of paper PMC9938120.

Key:
Assay in all cases: drug sensitivity score (DSS3, normalised partial AUC of % inhibition dose-response) (DSS (score)); higher = more sensitive (stronger inhibition of viability); extreme values may be limits of the assay
[1] = test system: FMOC02_2 (patient-derived low-grade serous ovarian cancer cells); details: 72 h; library: FO5A; assay format: 2D, 384-well, CellTiter-Glo
How it was run: (§1)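 On 384-well flat clear-bottom plates carrying compounds at five concentrations across a 10,000-fold range, patient-derived ovarian cancer cells below passage 10 were incubated for 72 h at 37 °C with 5% CO2. CellTiter-Glo readout of viability was processed in Breeze. A higher drug sensitivity score, defined as the partial area under the percent-inhibition dose-response curve divided by the log of the upper asymptote, means greater sensitivity.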

[2] = test system: FMOC02_3 (patient-derived low-grade serous ovarian cancer cells); details: 72 h; library: FO5A; assay format: 2D, 384-well, CellTiter-Glo
How it was run: as §1

[3] = test system: FMOC03 (patient-derived mucinous ovarian cancer cells); details: 72 h; library: FO5A; assay format: 2D, 384-well, CellTiter-Glo
How it was run: as §1

[4] = test system: FMOC06 (patient-derived mucinous ovarian cancer cells); details: 72 h; library: FO5A; assay format: 2D, 384-well, CellTiter-Glo
How it was run: as §1

[5] = test system: FMOC09 (patient-derived high-grade serous ovarian cancer cells); details: 72 h; library: FO5A; assay format: 2D, 384-well, CellTiter-Glo
How it was run: as §1

[6] = test system: FMOC14 (patient-derived high-grade serous ovarian cancer cells); details: 72 h; library: FO5A; assay format: 2D, 384-well, CellTiter-Glo
How it was run: as §1

[7] = test system: FMOC22 (patient-derived mucinous ovarian cancer cells); details: 72 h; library: FO5A; assay format: 2D, 384-well, CellTiter-Glo
How it was run: as §1

[8] = test system: FMOC24 (patient-derived high-grade serous ovarian cancer cells); details: 72 h; library: FO5A; assay format: 2D, 384-well, CellTiter-Glo
How it was run: as §1

[9] = test system: FMOC25_1 (patient-derived low-grade serous ovarian cancer cells); details: 72 h; library: FO4B; assay format: 2D, 384-well, CellTiter-Glo
How it was run: as §1

[10] = test system: FMOC25_2 (patient-derived low-grade serous ovarian cancer cells); details: 72 h; library: FO5A; assay format: 2D, 384-well, CellTiter-Glo
How it was run: as §1

SMILES	drug sensitivity score [1]	drug sensitivity score [2]	drug sensitivity score [3]	drug sensitivity score [4]	drug sensitivity score [5]	drug sensitivity score [6]	drug sensitivity score [7]	drug sensitivity score [8]	drug sensitivity score [9]	drug sensitivity score [10]
COc1cccc2c1C(=O)c1c(O)c3c(c(O)c1C2=O)C[C@@](O)(C(C)=O)C[C@@H]3O[C@H]1C[C@H](N)[C@H](O)[C@H](C)O1 [Daunorubicin]	6.7	9.7	4.6	6.4	6.4	5.8	4.9	7.6	10.1	7.7
Cc1[nH]c2ccccc2c1CCNCc1ccc(/C=C/C(=O)NO)cc1 [Panobinostat]	12.6	10.7	11.1	12.8	5.5	15.4	9.1	13.3	11.2	15.2
O=C(/C=C\n1cnc(-c2cc(C(F)(F)F)cc(C(F)(F)F)c2)n1)NNc1cnccn1 [Selinexor]	15.8	18.2	12.3	21.6	12.8	10.7	18.9	21.5	15.1	21.4
Cc1cc(OCc2nnc(SC3CCCC3)n2-c2cccnc2)ccc1-c1ccc(S(C)(=O)=O)cc1 [NMS-873]	8.3	10	9	8	5.3	9.2	8.8	9.15	8.9	9.6
CC(C)(C)c1cnc(CSc2cnc(NC(=O)C3CCNCC3)s2)o1 [SNS-032]	19.4	25.5	17.4	23.2	11.6	17.9	12	17.9	20.8	25.4
CO[C@H]1C[C@@H]2CC[C@@H](C)[C@@](O)(O2)C(=O)C(=O)N2CCCC[C@H]2C(=O)O[C@H]([C@H](C)C[C@@H]2CC[C@@H](OC(=O)C(C)(CO)CO)[C@H](OC)C2)CC(=O)[C@H](C)/C=C(\C)[C@@H](O)[C@@H](OC)C(=O)[C@H](C)C[C@H](C)/C=C/C=C/C=C/1C [Temsirolimus]	9.5	16.5	5.6	2.5	3.5	8.9	9.7	0.5	13.6	13.1
N.N.[Cl][Pt][Cl] [Cisplatin]	9.2	9.1	4	6	16.6	3.7	6.3	18.6	7.3	6
Nc1nc2[nH]cc(CCc3ccc(C(=O)N[C@@H](CCC(=O)O)C(=O)O)cc3)c2c(=O)[nH]1 [Pemetrexed]	0	0	2.2	0.3	0	0	3.4	1.55	0	3.3
FC(F)c1nc2ccccc2n1-c1nc(N2CCOCC2)nc(N2CCOCC2)n1 [ZSTK474]	16.9	18.4	10.6	12.5	11.8	9.8	5.6	4.65	15.6	16.8
COc1cccc2c1C(=O)c1c(O)c3c(c(O)c1C2=O)C[C@@](O)(/C(CO)=N/NC(=O)CCCCCN1C(=O)C=CC1=O)C[C@@H]3O[C@H]1C[C@H](N)[C@H](O)[C@H](C)O1 [Aldoxorubicin]	5	7.8	3.9	4.4	6.1	4.7	4.5	5.2	5.3	7.9
CO[C@H](C(=O)[C@@H](O)[C@@H](C)O)[C@@H]1Cc2cc3cc(O[C@H]4C[C@@H](O[C@@H]5C[C@@H](O)[C@H](O)[C@@H](C)O5)[C@H](O)[C@@H](C)O4)c(C)c(O)c3c(O)c2C(=O)[C@H]1O[C@H]1C[C@@H](O[C@@H]2C[C@@H](O)[C@@H](O[C@@H]3C[C@](C)(O)[C@H](O)[C@@H](C)O3)[C@@H](C)O2)[C@H](O)[C@@H](C)O1 [Plicamycin]	9	16.7	4.6	6.2	2.6	10.1	5.1	9	7	29.1
Cc1cc(Nc2cc(N3CCN(C)CC3)nc(Sc3ccc(NC(=O)C4CC4)cc3)n2)n[nH]1 [Tozasertib]	5	5.7	2.2	3.5	4.7	0.6	2.9	0.65	2.6	3.6
Nc1nc2[nH]cnc2c(=S)[nH]1 [Thioguanine]	3.2	4.3	0	0	0	0	0	0.95	5.3	6.3
CNC(=O)c1ccccc1Nc1nc(Nc2ccc3c(c2OC)CCC[C@H](N2CCN(CCO)CC2)C3)ncc1Cl	11.1	11.7	7.2	10.3	8.3	6	7.1	5.95	9	10.3
